The subject of assay [1] is patient suffering from SAPHO syndrome. The assay can be described thus: Case report: oral NMN in a patient with SAPHO syndrome, BASDAI self-assessment questionnaire. The conditions noted are these: one patient. Type of assay: in vivo, human. Here is the method: (§1) This case report investigated the effects of nicotinamide mononucleotide derivatives according to the invention in a patient suffering from SAPHO syndrome. Especially, the effects of nicotinamide mononucleotide (NMN), i.e. compound 001, were investigated. NMN was orally administered at a dose of 500 mg/day, once a day in the morning, for 12 months. The patient reported that SAPHO syndrome manifested with osteitis in the upper right chest area managed with NSAIDs. At the start of the treatment, the patient reported strong pain and swelling (7.5/10) in joints affected by the disease. The patient also suffered from fatigue. In the absence of SAPHO syndrome specific questionnaire, efficacy of the treatment was assessed using self-assessment questionnaires: the Bath Ankylosing Spondylitis Disease Activity Index (BASDAI) which is the gold standard for measuring and following disease activity in Ankylosing Spondylitis, and the Bath Ankylosing Spondylitis Functional Index (BAFSI) for measuring and monitoring functional ability in patients with ankylosing spondylitis. […] Evaluation was performed before start of the treatment, and after 12 months of treatment.

For assay [2] the test system is unchanged. The assay can be described thus: Case report: oral NMN in a patient with SAPHO syndrome, BASFI self-assessment questionnaire. Type of assay: in vivo, human. Conditions: one patient. The protocol: as §1

SMILES strings stand for the structures.

As for `NC(=O)c1ccc[n+]([C@@H]2O[C@H](COP(=O)([O-])O)[C@@H](O)[C@H]2O)c1` [NMN, nicotinamide mononucleotide], in assay [1] (500 mg/day oral once a day, after 12 months, before NMN: 5.4, scores of 4 or greater suggest suboptimal control of disease), the “BASDAI score after NMN” value was 3. The “effect on fatigue, pain and swelling of the joints and discomfort (BASDAI items)” value in assay [1] (500 mg/day oral, 12 months, before: pain and swelling 7.5/10, fatigue 6.5/10, discomfort 6.5/10) was “significantly improved fatigue, pain and swelling of the joints and discomfort”. The “BASFI score after NMN” value in assay [2] (500 mg/day oral once a day, after 12 months, before NMN: 2.4) stood at 2.1. Besides, in assay [2] (500 mg/day oral, after one year treatment, before treatment 7/10), the “BASFI item: physically demanding activities, score” value was 4.5 /10.

These data come from US20240335466A1, “NICOTINAMIDE MONONUCLEOTIDE DERIVATIVES FOR USE IN THE TREATMENT OF SAPHO SYNDROME” (NUVAMID SA, priority 2021, published 2024).
